Results published in patent publication US11857637B2, “Anti-CD25 antibody-maytansine conjugates and methods of use thereof” (priority 2019, dated 2024).
Read-outs that look alike come from different tables or passages of the source.

Key:
[1] = test system: CD25-positive leukemia and lymphoma cell lines, SU-DHL-1, HDLM-2, EoL-1, L-540, and Karpas 299; assay: In vitro cytotoxicity, range over the five cell lines; type: cell-based; conditions: read-out: IC50 concentrations (range across assays)
Method: (§1) The CD25-positive leukemia and lymphoma cell lines, SU-DHL-1, HDLM-2, EoL-1, L-540, and Karpas 299, were obtained from the ATCC and DSMZ cell banks, or were tested at Crown Bioscience, Inc. The cells were maintained in RPMI-1640 medium (Cellgro) supplemented with 10 or 20% fetal bovine serum (Invitrogen) and Glutamax (Invitrogen). 24 h prior to plating, cells were passaged to ensure log-phase growth. On the day of plating, 5000 cells/well were seeded onto 96-well plates in 100 μL normal growth medium supplemented with 10 IU penicillin and 10 μg/mL streptomycin (Cellgro). Cells were treated at various concentrations with 20 μL of diluted analytes, and the plates were incubated at 37° C. in an atmosphere of 5% CO2. After 5 d, 100 μL/well of Cell Titer-Glo reagent (Promega) was added, and luminescence was measured using a Molecular Devices SpectraMax M5 plate reader. GraphPad Prism software was used for data analysis.

Karpas 299 xenograft = Karpas 299 xenograft study; type: in vivo, Female CB17.SCID mice; conditions: 10 mg/kg intravenously, single dose or qwk×4; at 28 days; subcutaneous Karpas 299 tumors, FIG. 11
Method: Female CB17.SCID mice (6/group) were inoculated subcutaneously with 5×10^6 Karpas 299 cells. Treatment began when the tumors reached an average of 205 mm^3, at which time the animals were dosed intravenously with vehicle alone or the anti-CD25 HIPS-4AP-maytansine conjugate (10 mg/kg). One group received a single dose of the anti-CD25 HIPS-4AP-maytansine conjugate, while another group was dosed once per week for a total of four doses (qwk×4). The animals were monitored twice weekly for body weight and tumor size. Animals were euthanized when tumors reached 2000 mm^3.

HDLM-2 cells = assay: In vitro cytotoxicity (Cell Titer-Glo, 5 d); type: cell-based; conditions: HDLM-2 cell line, 5 d incubation, FIG. 7
Method: as §1

Karpas 299 cells = assay: In vitro cytotoxicity (Cell Titer-Glo, 5 d); type: cell-based; conditions: Karpas 299 cell line, 5 d incubation, FIG. 10
Method: as §1

L-540 cells = assay: In vitro cytotoxicity (Cell Titer-Glo, 5 d); type: cell-based; conditions: L-540 cell line, 5 d incubation, FIG. 9
Method: as §1

SU-DHL-1 cells = assay: In vitro cytotoxicity (Cell Titer-Glo, 5 d); type: cell-based; conditions: SU-DHL-1 cell line, 5 d incubation, FIG. 6
Method: as §1

EoL-1 cells = assay: In vitro cytotoxicity (Cell Titer-Glo, 5 d); type: cell-based; conditions: EoL-1 cell line, 5 d incubation, FIG. 8
Method: as §1

Row | Compound | IC50 ([1]; 120 h) [nM] | detectable tumors at median time to endpoint of vehicle control groups (Karpas 299 xenograft) | IC50 ([1]; range over all five tested cell lines, 5 d incubation) [nM] | IC50 (HDLM-2 cells) [nM] | IC50 (Karpas 299 cells) [nM] | IC50 (L-540 cells) [nM] | IC50 (SU-DHL-1 cells) [nM] | IC50 (EoL-1 cells) [nM]
1 | COc1cc2cc(c1Cl)N(C)C(=O)C[C@H](OC(=O)[C@H](C)N(C)C(C)=O)[C@]1(C)O[C@H]1[C@H](C)[C@@H]1C[C@@](O)(NC(=O)O1)[C@H](OC)/C=C/C=C(\C)C2 [free maytansine, maytansine] | 0.03 to 0.19 | – | – | – | – | – | – | –
2 | anti-CD25 HIPS-4AP-maytansine conjugate: C-terminally aldehyde-tagged anti-CD25 antibody (daclizumab) conjugated to a maytansine payload attached to a HIPS-4AP linker; DAR 1.75-1.84 | – | none of the animals that had been dosed with the anti-CD25 HIPS-4AP-maytansine conjugate had detectable tumors | 0.06 to 0.49 | 0.06 | 0.49 | 0.43 | 0.24 | 0.07
